For one experiment, the system named is COS Cell. Nature of the experiment: COS Cell IC50 (Cell-Based Assay). Conditions: COS cells. On the procedure: (§1) FPT IC50 (inhibition of farnesyl protein transferase, in vitro enzyme assay) and COS Cell IC50 (Cell-Based Assay) were determined following the assay procedures described in WO 95/10516, published Apr. 20, 1995. GGPT IC50 (inhibition of geranylgeranyl protein transferase, in vitro enzyme assay), Cell Mat Assay, and anti-tumor activity (in vivo anti-tumor studies) could be determined by the assay procedures described in WO 95/10516. The disclosure of WO 95/10516 is incorporated herein by reference thereto.

Experiment [1] deals with T1, farnesyl protein transferase (Homo sapiens, UniProt P49354+P49356). Nature of the experiment: FPT inhibition, in vitro enzyme assay (K-ras). It counts as biochemical. On the procedure: as §1
Experiment [2] has as its target T1, farnesyl protein transferase. Description: FPT inhibition, in vitro enzyme assay (H-ras). It is filed as biochemical. As for the experimental part: as §1
Another experiment deals with Human tumor cells. Description: Soft Agar Assay (anchorage-independent growth of human tumor cells). It is filed as cell-based. Particulars: 10-16 days at 37° C., 5% CO2, MTT stain. As for the experimental part:
Soft Agar Assay: Anchorage-independent growth is a characteristic of tumorigenic cell lines. Human tumor cells are suspended in growth medium containing 0.3% agarose and an indicated concentration of a farnesyl transferase inhibitor. The solution is overlayed onto growth medium solidified with 0.6% agarose containing the same concentration of farnesyl transferase inhibitor as the top layer. After the top layer is solidified, plates are incubated for 10-16 days at 37° C. under 5% CO2 to allow colony outgrowth. […] Colonies can be counted and the IC50 's can be determined.

The values that follow come from patent US5945429A, “Compounds useful for inhibition of farnesyl protein transferase” (Schering Corporation, priority 1997, dated 1999).

Several values for one entry are separate records, joined by “and”; a condition that tells them apart may be missing. Identical values can stand only once.

In general, IC50 refers to the concentration that inhibits the measured activity by half. A higher IC50 goes with a need for much substance.

T1 sequence (P49356 whole entry, one chain of several): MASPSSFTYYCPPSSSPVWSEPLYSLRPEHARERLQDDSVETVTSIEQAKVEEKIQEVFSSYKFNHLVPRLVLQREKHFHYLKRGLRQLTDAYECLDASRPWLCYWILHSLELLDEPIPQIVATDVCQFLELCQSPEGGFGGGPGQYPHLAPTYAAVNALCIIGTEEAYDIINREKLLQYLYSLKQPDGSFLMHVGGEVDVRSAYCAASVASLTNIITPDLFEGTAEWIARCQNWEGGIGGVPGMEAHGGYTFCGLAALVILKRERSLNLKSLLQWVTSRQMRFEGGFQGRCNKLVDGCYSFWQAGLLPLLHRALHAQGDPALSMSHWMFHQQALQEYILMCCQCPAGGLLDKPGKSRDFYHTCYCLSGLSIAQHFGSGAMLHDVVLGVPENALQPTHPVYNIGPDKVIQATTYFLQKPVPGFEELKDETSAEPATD

For `CCS(=O)(=O)N1CCC(CC(=O)N2CCC([C@H]3c4ncc(Br)cc4CCc4cc(Cl)cc(Br)c43)CC2)CC1` [Example 6], the IC50 was determined as 12 nM in the experiment on COS Cell, 16.4 nM in experiment [1], 3.7 nM in experiment [2] and 100 nM in the experiment with Human tumor cells.

On to `CCCS(=O)(=O)N1CCC(CC(=O)N2CCC([C@H]3c4ncc(Br)cc4CCc4cc(Cl)cc(Br)c43)CC2)CC1` [Example 7], for which the figures for the IC50 in experiment [1] and in experiment [2] were 14.2 nM and 5 nM, respectively.

Take `CC(C)S(=O)(=O)N1CCC(CC(=O)N2CCC([C@H]3c4ncc(Br)cc4CCc4cc(Cl)cc(Br)c43)CC2)CC1` [Example 8]: the IC50 was found to be 22.9 nM in experiment [1] and 5.8 nM in experiment [2].

With `O=C(CC1CCN(S(=O)(=O)Cc2ccccc2)CC1)N1CCC([C@H]2c3ncc(Br)cc3CCc3cc(Cl)cc(Br)c32)CC1` [Example 9], the IC50 in experiment [2] is 17.5 nM and 8 nM.

For the compound `CC1(C)[C@@H]2CC[C@@]1(CS(=O)(=O)N1CCC(CC(=O)N3CCC([C@H]4c5ncc(Br)cc5CCc5cc(Cl)cc(Br)c54)CC3)CC1)C(=O)C2` [Example 10], the IC50 in experiment [1] worked out at 52.5 nM; in experiment [2], 34.1 nM.

Regarding `O=C(CC1CCN(S(=O)(=O)c2cccs2)CC1)N1CCC([C@H]2c3ncc(Br)cc3CCc3cc(Cl)cc(Br)c32)CC1` [Example 13], the IC50 with COS Cell is 50 nM; with Human tumor cells it was more than 250 nM.

Turning to `Cn1cnc(S(=O)(=O)N2CCC(CC(=O)N3CCC([C@H]4c5ncc(Br)cc5CCc5cc(Cl)cc(Br)c54)CC3)CC2)c1` [Example 14], the IC50 in the experiment with COS Cell stood at 400 nM.
